Test results taken from US8362051B2, “Mold-resistant wallboard” (Rohm and Haas Company, priority 2007, dated 2013).

What was measured:
Assay type in all cases: cell-based
mold [1] = assay: TAPPI T-487 test on surface-treated paper; parameters: key to TAPPI T-487 rating Week 1 / TAPPI T-487 rating Week 2 / TAPPI T-487 rating Week 3: 100% mold coverage; 1: 90% mold coverage; 2: 80% mold coverage; 3: 70% mold coverage; 4: 60% mold coverage; 50% mold coverage; 6: 40% mold coverage; 7: 30% mold coverage; 8: 20% mold coverage; 9: 10% mold coverage; 10: no mold growth; conditions: surface treatment; for TAPPI T-487 rating Week 1 / TAPPI T-487 rating Week 2 / TAPPI T-487 rating Week 3: average of three sheets
Procedure: The papers of this example were prepared via surface treatment. The values in Table 3 below represent the average concentration of active biocide in the paper and the average […]-487 test rating based on three paper sheets.

mold [2] = assay: ASTM 3273 fungal growth test on paper sheets, biocide added to pulp slurry; parameters: key to ASTM 3273 rating Week 1: 0: 100% mold coverage; 1: 90%; 2: 80%; 3: 70%; 4: 60%; 5: 50%; 6: 40%; 7: 30%; 8: 20%; 9: 10%; 10: no mold growth coverage; 8: 20% mold coverage; 9: 10% mold coverage; 10: no mold growth; key to ASTM 3273 rating Week 2 / ASTM 3273 rating Week 3 / ASTM 3273 rating Week 4: 100% mold coverage; 1: 90% mold coverage; 2: 80% mold coverage; 3: 70% mold coverage; 4: 60% mold coverage; 50% mold coverage; 6: 40% mold coverage; 7: 30% mold coverage; 8: 20% mold coverage; 9: 10% mold coverage; 10: no mold growth; conditions: average of three sheets
Procedure: (§1) The biocides can be evaluated in the following examples by adding to a 0.4 wt % pulp slurry in water (100% recycle) typically used for gypsum wallboard facing paper. The slurry is filtered through a screen to drain the water from the stock and the resulting paper mat is blotted, couched, and dried to form a paper sheet with a basis weight of approximately 40 lb/1000 ft2. Three sheets per condition are prepared. High Performance Liquid Chromatography (HPLC) is used to determine the amount of biocide present in each sheet. The paper sheets are evaluated for fungal growth via ASTM 3273, currently the industry standard for mold-resistant wallboard, as well as the standard TAPPI T-487 fungal efficacy test.
(§2) The values in Tables 1 and 2 below represent data from samples made substantially according to the preceding protocol. The average concentration of active biocide in the paper and the average test rating based on three paper sheets are shown. Based on tables 1 and 2, approximately 4-4.5 times more DIMTS active was needed in the paper sheet than OIT before no mold growth was observed throughout the entire testing period.
(§3) For ASTM 3273, a 4-week test, the following rating scale applies: • 0—100% mold coverage • 1—90% mold coverage • 2—80% mold coverage • 3—70% mold coverage • 4—60% mold coverage • 5—50% mold coverage • 6—40% mold coverage • 7—30% mold coverage • 8—20% mold coverage • 9—10% mold coverage • 10—no mold growth For TAPPI T-487, a 3-week test, the following rating scale applies: • 0—no mold growth • 1—25% mold coverage • 2—50% mold coverage • 3—75% mold coverage • 4—100% mold coverage

mold [3] = assay: TAPPI T-487 fungal efficacy test on paper sheets, biocide added to pulp slurry; parameters: key: coverage; 8: 20% mold coverage; 9: 10% mold coverage; 10: no mold growth; conditions: average of three sheets
Procedure: as §1, §2, §3

CCCCNC(=O)OCC#CI [IPBC, 3-iodo-2-propynyl-butylcarbamate]
TAPPI T-487 rating Week 1 (mold [1]; 70 ppm in paper): 0
TAPPI T-487 rating Week 2 (mold [1]; 70 ppm in paper): 0
TAPPI T-487 rating Week 3 (mold [1]; 70 ppm in paper): 0
TAPPI T-487 rating Week 1 (mold [1]; 688 ppm in paper): 0
TAPPI T-487 rating Week 2 (mold [1]; 688 ppm in paper): 0
TAPPI T-487 rating Week 3 (mold [1]; 688 ppm in paper): 0
TAPPI T-487 rating Week 1 (mold [1]; 6768 ppm in paper): 0
TAPPI T-487 rating Week 2 (mold [1]; 6768 ppm in paper): 0
TAPPI T-487 rating Week 3 (mold [1]; 6768 ppm in paper): 0
effectiveness at controlling mold growth versus comparators (mold [1]; based on Table 3): more effective at controlling mold growth at lower dosages than DIMTS, ZPT, and TBZ

CCCCCCCCn1sccc1=O [OIT, octylisothiazolinone]
ASTM 3273 rating Week 1 (mold [2]; 113 ppm in paper sheet): 10
ASTM 3273 rating Week 2 (mold [2]; 113 ppm in paper sheet): 10
ASTM 3273 rating Week 3 (mold [2]; 113 ppm in paper sheet): 10
ASTM 3273 rating Week 4 (mold [2]; 113 ppm in paper sheet): 10
ASTM 3273 rating Week 1 (mold [2]; 174 ppm in paper sheet): 10
ASTM 3273 rating Week 2 (mold [2]; 174 ppm in paper sheet): 10
ASTM 3273 rating Week 3 (mold [2]; 174 ppm in paper sheet): 10
ASTM 3273 rating Week 4 (mold [2]; 174 ppm in paper sheet): 10
ASTM 3273 rating Week 1 (mold [2]; 283 ppm in paper sheet): 10
ASTM 3273 rating Week 2 (mold [2]; 283 ppm in paper sheet): 10
ASTM 3273 rating Week 3 (mold [2]; 283 ppm in paper sheet): 10
ASTM 3273 rating Week 4 (mold [2]; 283 ppm in paper sheet): 10
TAPPI T-487 rating Week 1 (mold [3]; 181 ppm in paper sheet): 0
TAPPI T-487 rating Week 2 (mold [3]; 181 ppm in paper sheet): 0
TAPPI T-487 rating Week 3 (mold [3]; 181 ppm in paper sheet): 0
TAPPI T-487 rating Week 1 (mold [3]; 309 ppm in paper sheet): 0
TAPPI T-487 rating Week 2 (mold [3]; 309 ppm in paper sheet): 0
TAPPI T-487 rating Week 3 (mold [3]; 309 ppm in paper sheet): 0
TAPPI T-487 rating Week 1 (mold [3]; 492 ppm in paper sheet): 0
TAPPI T-487 rating Week 2 (mold [3]; 492 ppm in paper sheet): 0
TAPPI T-487 rating Week 3 (mold [3]; 492 ppm in paper sheet): 0

c1ccc2[nH]c(-c3cscn3)nc2c1 [TBZ, Thiabendazole]
TAPPI T-487 rating Week 1 (mold [1]; 31 ppm in paper): 4 (100% mold coverage)
TAPPI T-487 rating Week 2 (mold [1]; 31 ppm in paper): 4 (100% mold coverage)
TAPPI T-487 rating Week 3 (mold [1]; 31 ppm in paper): 4 (100% mold coverage)
TAPPI T-487 rating Week 1 (mold [1]; 229 ppm in paper): 2 (50% mold coverage)
TAPPI T-487 rating Week 2 (mold [1]; 229 ppm in paper): 4 (100% mold coverage)
TAPPI T-487 rating Week 3 (mold [1]; 229 ppm in paper): 4 (100% mold coverage)
TAPPI T-487 rating Week 1 (mold [1]; 4107 ppm in paper): 0
TAPPI T-487 rating Week 2 (mold [1]; 4107 ppm in paper): 0
TAPPI T-487 rating Week 3 (mold [1]; 4107 ppm in paper): 0

zinc pyrithione [ZPT]
TAPPI T-487 rating Week 1 (mold [1]; 60 ppm in paper): 4 (100% mold coverage)
TAPPI T-487 rating Week 2 (mold [1]; 60 ppm in paper): 4 (100% mold coverage)
TAPPI T-487 rating Week 3 (mold [1]; 60 ppm in paper): 4 (100% mold coverage)
TAPPI T-487 rating Week 1 (mold [1]; 486 ppm in paper): 1 (25% mold coverage)
TAPPI T-487 rating Week 2 (mold [1]; 486 ppm in paper): 4 (100% mold coverage)
TAPPI T-487 rating Week 3 (mold [1]; 486 ppm in paper): 4 (100% mold coverage)
TAPPI T-487 rating Week 1 (mold [1]; 5408 ppm in paper): 0
TAPPI T-487 rating Week 2 (mold [1]; 5408 ppm in paper): 0
TAPPI T-487 rating Week 3 (mold [1]; 5408 ppm in paper): 0
